15 molecules from US20050159476A1, “Pharmaceutical composition for preventing or treating respiratory disease” (Chugai Seiyaku Kabushiki Kaisha, priority 2002, published 2005) can be followed below.

Assay [1] deals with normal human bronchial/tracheal epithelial cells (NHBE w/RA). Nature of the assay: Protective effect against cell injury induced by oxidized LDL in normal human bronchial/tracheal epithelial cells (LDH leakage). Type of assay: cell-based. As to conditions: 24 h, average ± standard error; for inhibition at 3 µM: 3 μmol/L test compound; for inhibition at 30 µM: 30 μmol/L test compound. As to the method: (§1) Oxidized LDL was prepared by maintaining 1 mg/mL of rabbit LDL at 37° C for 24 hours in PBS (-) containing 10 μmol/L CUSO4.
(§2) These cells were dispersed in F12K medium containing 10% FBS and plated on a 24-well plate at 2.5×10^4 cells/500 μL/well. These cells were incubated at 37° C. for 18 hours and then the medium was replaced by F12K medium containing 2% FBS. At this time, 2.5 μL of a solution or a suspension of each test compound in ethanol was added at the concentrations of the test compound of 3 μmol/L and 30 μmol/L in each well.
(§3) After incubation at 37° C. for 6 hours, 50 μL of a suspension of oxidized LDL was added per well at the concentration of oxidized LDL of 100 μg/mL in each well.
(§4) After incubation at 37° C. for 24 hours, 200 μL of the supernatant was collected from each well and the amount of lactate dehydrogenase (LDH) leaked from cells was determined by the SFBC method.
(§5) Further test was carried out in the same manner as the above test with the exception that each test compound was added to the cell culture after incubation for 6 hours following medium replacement and immediately before oxidized LDL was added thereto rather than when the medium was replaced with F12K medium containing 2% FBS.
(§6) Higher LDH levels in the supernatant indicate that greater cell injury is induced by oxidized LDL. Separately, one experiment was carried out using a well in the same manner as the above test with the exception that no test compound was added to the well. The level of LDH in this well was defined as 0% cell protection. In addition, other experiment was carried out using another well without adding either test compound or oxidized LDL but with adding saline instead. The level of LDH in this well was defined as 100% cell protection. These levels of LDH were used for calculating cell protection of each test compound used in the above test.
This test example was carried out in a similar manner to test example 1 except that human A549 cells were replaced with normal human bronchial/tracheal epithelial cells (NHBE w/RA: BioWhittaker Co.), cell culture medium was changed from F12K medium containing 10% FBS to BEGM® medium, and the replacement of medium was not made.
(In general: LDH leaks from cells whose membrane has failed.)

A further assay concerns human A549 cells. Nature of the assay: Protective effect against cell injury induced by oxidized LDL in human A549 cells (LDH leakage). As to conditions: for inhibition at 3 µM / inhibition at 30 µM: Homo sapiens, oxidized LDL 100 μg/mL, 24 hours, average ± standard error; for inhibition at 3 µM: 3 μmol/L test compound; for inhibition at 30 µM: 30 μmol/L test compound; for % cell protection as a function of test compound concentration (FIG. 1): test compound added immediately before oxidized LDL, Test Example 2. Type of assay: cell-based. As to the method: as §1
Human A549 cells used in this test are available under accession number ATCC-CCL-185 and have the properties of type II alveolar epithelial cells (Lieber M, Smith B, Szakal A, Nelson-Rees W, Todaro G., A continuous tumor-cell line from a human lung carcinoma with properties of type II alveolar epithelial cells. Int J Cancer Jan. 15, 1976; 17(1):62-70).
as §2, §3, §4, §5, §6
Probucol and α-tocopherol were tested for comparison with the compounds of the present invention. In this test, the test compounds were added to the cell culture after incubation for 6 hours following medium replacement and immediately before oxidized LDL was added.

[2] abbreviates: read-out: % Cell protection in the case where oxidized LDL was added 6 hrs after adding test compound.
The mark [3] stands for this setting: read-out: % Cell protection in the case where oxidized LDL was added immediately after adding test compound.

The structures appear in SMILES notation. Like-named read-outs stand apart in the source and are kept apart here.

For the molecule `CC(C)(C)c1cc2c(c(C(C)(C)C)c1O)CCO2` [Compound 1, 4,6-di-t-butyl-5-hydroxy-2,3-dihydrobenzofuran], the inhibition at 3 µM in assay [1] (setting [2]) amounted to 5.9 ± 4.7%; in assay [1] (setting [3]) it was 35.6 ± 16.8%; in the assay on human A549 cells (setting [2]), 11.3 ± 1.6%; in the assay on human A549 cells (setting [3]), 40.4 ± 8.3%. Further, the inhibition at 30 µM amounted to 74.7 ± 1.4% in assay [1] (setting [2]), 59.2 ± 7.6% in assay [1] (setting [3]), 99.6 ± 0.9% in the assay with human A549 cells (setting [2]) and 98.8 ± 0.2% in the assay with human A549 cells (setting [3]).
With `CC1(C)Cc2c(cc(C(C)(C)C)c(O)c2C(C)(C)C)O1` [Compound 2, 4,6-di-t-butyl-5-hydroxy-2,2-dimethyl-2,3-dihydrobenzofuran], the inhibition at 3 µM stood at 32.8 ± 2.9% in assay [1] (setting [2]), 71.1 ± 1.3% in assay [1] (setting [3]), 0.5 ± 1.3% in the assay with human A549 cells (setting [2]) and 16.9 ± 10.5% in the assay with human A549 cells (setting [3]). Moreover, the inhibition at 30 µM amounted to 27.7 ± 2.7% in assay [1] (setting [2]), 76.1 ± 3.4% in assay [1] (setting [3]), 99.5 ± 1.1% with human A549 cells (setting [2]) and 100 ± 1.5% in the assay on human A549 cells (setting [3]).
As to `CC(C)(C)c1cc2c(c(C(C)(C)C)c1O)CC(Cc1ccccc1)(Cc1ccccc1)O2` [Compound 4, 4,6-di-t-butyl-2,2-dibenzyl-5-hydroxy-2,3-dihydrobenzofuran], the inhibition at 3 µM in assay [1] (setting [2]) was determined as 12.3 ± 4.3%; in assay [1] (setting [3]), 9.1 ± 2.3%; in the assay on human A549 cells (setting [2]), 6.1 ± 2.5%; in the assay with human A549 cells (setting [3]), 5.3 ± 2.5%. For the same molecule, the inhibition at 30 µM was 47.8 ± 1.6% in assay [1] (setting [2]), 53.5 ± 3.1% in assay [1] (setting [3]), 94.1 ± 0.4% in the assay on human A549 cells (setting [2]) and 95.3 ± 3.4% in the assay on human A549 cells (setting [3]).
Turning to `CC1(CN)Cc2c(cc(C(C)(C)C)c(O)c2C(C)(C)C)O1` (stereo not shown) [Compound 5, 2-aminomethyl-4,6-di-t-butyl-5-hydroxy-2-methyl-2,3-dihydrobenzofuran], the inhibition at 3 µM came out at 6.3 ± 4.5% in assay [1] (setting [2]), 0.8 ± 4.6% in assay [1] (setting [3]), 6.4 ± 0.8% with human A549 cells (setting [2]) and 6.9 ± 3.1% in the assay with human A549 cells (setting [3]). Besides, the inhibition at 30 µM in assay [1] (setting [2]) was determined as 33.6 ± 1.8%; in assay [1] (setting [3]), 48.3 ± 8.1%; in the assay on human A549 cells (setting [2]), 96.5 ± 0.5%; in the assay with human A549 cells (setting [3]) it was 97.1 ± 0.8%.
In the case of `CC1(C(=O)O)Cc2c(cc(C(C)(C)C)c(O)c2C(C)(C)C)O1` (stereo not shown) [Compound 6, 4,6-di-t-butyl-5-hydroxy-2-methyl-2,3-dihydrobenzofuran-2-carboxylic acid], the inhibition at 3 µM is -0.9 ± 1.8% in assay [1] (setting [2]), 0.3 ± 2% in assay [1] (setting [3]), 8.5 ± 0.8% in the assay on human A549 cells (setting [2]) and 9.1 ± 1.2% in the assay on human A549 cells (setting [3]). The inhibition at 30 µM in assay [1] (setting [2]) is 44.8 ± 3.2%; in assay [1] (setting [3]), 30.3 ± 3.1%; with human A549 cells (setting [2]), 65.3 ± 2.9%; in the assay on human A549 cells (setting [3]), 46.7 ± 2.9%.
Turning to `CC(C)(C)c1cc2c(c(C(C)(C)C)c1O)CC1(CCCCCC1)O2` [Compound 7, 4,6-di-t-butyl-5-hydroxy-2,3-dihydrobenzofuran-2-spiro-1′-cycloheptane], the inhibition at 3 µM was 7.7 ± 3.6% in assay [1] (setting [2]), 11.3 ± 1.1% in assay [1] (setting [3]), 1.6 ± 6% in the assay on human A549 cells (setting [2]) and -0.8 ± 2.8% in the assay on human A549 cells (setting [3]). The inhibition at 30 µM in assay [1] (setting [2]) worked out at 58.7 ± 5.1%; in assay [1] (setting [3]) it was 73.4 ± 0.4%; in the assay on human A549 cells (setting [2]), 98.2 ± 2.1%; in the assay with human A549 cells (setting [3]) it was 98.4 ± 1.1%.
As to `CC(C)(C)c1cc2c(c(C(C)(C)C)c1O)CC1(CCOCC1)O2` [Compound 8, 4,6-di-t-butyl-5-hydroxy-2,3-dihydrobenzofuran-2-spiro-4′-tetrahydropyran], the inhibition at 3 µM in assay [1] (setting [2]) came out at 10.1 ± 6%; in assay [1] (setting [3]), 13.2 ± 1.4%; with human A549 cells (setting [2]), 10.6 ± 6.2%; in the assay with human A549 cells (setting [3]), 10.8 ± 5.2%. Further, the inhibition at 30 µM is 74.3 ± 1.5% in assay [1] (setting [2]), 68.9 ± 0.8% in assay [1] (setting [3]), 95 ± 5.3% with human A549 cells (setting [2]) and 93.6 ± 2.9% in the assay on human A549 cells (setting [3]).
On to `CC(C)(C)c1cc2c(c(C(C)(C)C)c1O)CC1(CCCC1)O2` [Compound 9, 4,6-di-t-butyl-5-hydroxy-2,3-dihydrobenzofuran-2-spiro-1′-cyclopentane], for which the inhibition at 3 µM in assay [1] (setting [2]) was 3.7 ± 6.7%; in assay [1] (setting [3]) it was 6.1 ± 1.1%; in the assay with human A549 cells (setting [2]), -1.6 ± 4.4%; in the assay with human A549 cells (setting [3]) it was -1.5 ± 4.1%. Further, the inhibition at 30 µM in assay [1] (setting [2]) came out at 18.1 ± 2.3%; in assay [1] (setting [3]), 71.1 ± 2.3%; in the assay on human A549 cells (setting [2]) it was 98.5 ± 1.8%; in the assay on human A549 cells (setting [3]), 99.2 ± 2.2%.
Take `CC(C)(C)c1cc2c(c(C(C)(C)C)c1O)CC1(CCCCC1)O2` [Compound 10, 4,6-di-t-butyl-5-hydroxy-2,3-dihydrobenzofuran-2-spiro-1′-cyclohexane]: the inhibition at 3 µM was 5.3 ± 2.6% in assay [1] (setting [2]), 13.1 ± 6.4% in assay [1] (setting [3]), -0.7 ± 1.5% in the assay with human A549 cells (setting [2]) and 0.9 ± 1.9% with human A549 cells (setting [3]). Further, the inhibition at 30 µM in assay [1] (setting [2]) came to 37.3 ± 4.3%; in assay [1] (setting [3]) it was 57 ± 2.5%; in the assay with human A549 cells (setting [2]), 97.8 ± 2.1%; in the assay on human A549 cells (setting [3]) it was 96.9 ± 4.8%.
`CC(C)(C)c1cc2c(c(C(C)(C)C)c1O)CC1(CCSCC1)O2` [Compound 11, 4,6-di-t-butyl-5-hydroxy-2,3-dihydrobenzofuran-2-spiro-4′-tetrahydrothiopyran]: the inhibition at 3 µM came out at 3 ± 3.2% in assay [1] (setting [2]), 7.5 ± 7.6% in assay [1] (setting [3]), 3.5 ± 2.6% with human A549 cells (setting [2]) and 4.6 ± 2.6% in the assay with human A549 cells (setting [3]). Further, the inhibition at 30 µM came out at 52 ± 2.2% in assay [1] (setting [2]), 40.9 ± 5.3% in assay [1] (setting [3]), 99.3 ± 1.1% in the assay on human A549 cells (setting [2]) and 98.5 ± 0.8% in the assay on human A549 cells (setting [3]).
In the case of `CC1(C)Cc2c(cc(C(C)(C)C)c(O)c2C(C)(C)C)S1` [Compound 12, 4,6-di-t-butyl-5-hydroxy-2,2-dimethyl-2,3-dihydrobenzothiophene], the inhibition at 3 µM came to 10.9 ± 2.1% in assay [1] (setting [2]), 10.9 ± 3.8% in assay [1] (setting [3]), 9.9 ± 6.8% with human A549 cells (setting [2]) and 11.1 ± 7.4% in the assay on human A549 cells (setting [3]). Besides, the inhibition at 30 µM turned out to be 21.2 ± 2% in assay [1] (setting [2]), 48.7 ± 1.2% in assay [1] (setting [3]), 98.7 ± 2.9% with human A549 cells (setting [2]) and 96.6 ± 2% in the assay on human A549 cells (setting [3]).
On to `CC(C)(C)c1cc2c(c(C(C)(C)C)c1O)CC1(CCCCC1)S2` [Compound 13, 4,6-di-t-butyl-5-hydroxy-2,3-dihydrobenzothiophene-2-spiro-1′-cyclohexane], for which the inhibition at 3 µM in assay [1] (setting [2]) is -3.4 ± 7.1%; in assay [1] (setting [3]), -4.8 ± 2.9%; in the assay with human A549 cells (setting [2]), 10.8 ± 3.9%; in the assay on human A549 cells (setting [3]), 11.3 ± 3.5%. The inhibition at 30 µM in assay [1] (setting [2]) was determined as 37.8 ± 0.7%; in assay [1] (setting [3]), 49.2 ± 1.7%; with human A549 cells (setting [2]) it was 98 ± 1%; with human A549 cells (setting [3]), 97.1 ± 4.3%.
Take `CC(C)(C)c1cc2c(c(C(C)(C)C)c1O)CC1(CCOCC1)S2` [Compound 14, 4,6-di-t-butyl-5-hydroxy-2,3-dihydrobenzothiophene-2-spiro-4′-tetrahydropyran]: the inhibition at 3 µM in assay [1] (setting [2]) is -0.5 ± 1.9%; in assay [1] (setting [3]) it was -1 ± 5.3%; in the assay on human A549 cells (setting [2]) it was 7 ± 3.5%; in the assay on human A549 cells (setting [3]), 3.2 ± 1.3%. Further, the inhibition at 30 µM in assay [1] (setting [2]) stood at 63.3 ± 0.8%; in assay [1] (setting [3]), 60.6 ± 4%; in the assay on human A549 cells (setting [2]) it was 96.1 ± 1.2%; in the assay with human A549 cells (setting [3]), 98.9 ± 2.4%.
With `CC(C)(Sc1cc(C(C)(C)C)c(O)c(C(C)(C)C)c1)Sc1cc(C(C)(C)C)c(O)c(C(C)(C)C)c1` [probucol, reference compound], the “% cell protection as a function of test compound concentration (FIG. 1)” value in the assay on human A549 cells is on record as “does not increase or only slowly increases”.
On the same count and under the same terms, the same measure for `Cc1c(C)c2c(c(C)c1O)CC[C@@](C)(CCC[C@H](C)CCC[C@H](C)CCCC(C)C)O2` [α-tocopherol, reference compound]: “does not increase or only slowly increases”.
